# US20050112131A1, “Methods of adjuvant photodynamic therapy to enhance radiation sensitization” (priority 2002, published 2005)
# Legend:
# RIF-1 tumors [1] = experiment: Tumor regrowth assay, photodynamic therapy alone or combined with radiation; assay type: in vivo, mice
# Experimental: The combination effect of photodynamic therapy and radiation therapy was examined in in vivo tumor models. Injection of PBD or saline (control) was given 3 hours prior to irradiation in all animals. Light at 690 nm wavelength was delivered t the photodynamic therapy treated animals while the animal was positioned in the irradiator cone. An irradiance of 133 mW/cm^2 was used for a total of 12 minutes, for a total dose of 100 J/cm^2. Radiation was administered at a single dose of 10 Gy (300 keV, 10 mA, HVL=2.33 Gy/min). The following groups were organized: (1) sham-irradiated controls, (2) radiation treatment alone, (3) photodynamic therapy alone, (4) radiation treatment followed by photodynamic therapy, and (5) photodynamic therapy with simultaneous radiation treatment. In Group 4, X-ray radiation was administered for the full 3-minute treatment period after the photosensitizer was injected and incubated in the animal for 3 hours, then irradiation was given for 12 minutes. The Group 5 animals received irradiation 3 hours after drug injection, and during the last three minutes of the irradiation. X-ray irradiation was also given to the tumor at the same time.
# Irradiation using the 10 Gy dose using approximately 300 keV was delivered in 3 minutes from a Pantak Therapax 300 orthovoltage irradiator, using a 2 cm collimation cone. This cone was contacted with a region of the mouse leg surrounding the tumor. The end of the collimation cone was comprised of transparent plastic, allowing radiation and treatment to occur at the same time (required for Group 5, where photodynamic therapy and radiation were simultaneously administered). All animals were treated with the cone in place, as well as Group 1 sham-irradiated mice and Group 3 photodynamic therapy alone mice. This was performed to ensure equal doses of light were given to all groups, which included changes in the beam from reflection and refraction through the irradiator cone.
# Each group of mice were assayed for tumor regrowth following combined radiation/photodynamic therapy, radiation alone, or photodynamic therapy alone. The resulting treatment effect was assayed by calculation of tumor volume, as calculated by measurement of the three major axis dimensions: Volume≅Length×Width×Height/2 The time for a tumor to reach double its volume on the day of treatment was calculated for each individual animal separately, by estimating the data by a linear fit to logarithmic growth curves versus time. The average values from these times to double in volume were determined for each group of mice. Analysis of the tumor regrowth data, estimates of the mean double time (including standard deviation), and mice heterogeneity was achieved by generating individual growth curve data and fitting with a mixed effect model. It was assumed that after day 3, the tumor re-grows exponentially, which corresponds to a linear function when plotted on a semi-logarithmic graph. The time for a tumor to reach double its volume on the day of treatment was calculated for each group along with the respective standard deviation. The standard error gives rise to the group comparison using X-test to account for significant differences between the mean values of the different treatment groups.
# RIF-1 tumors [2] = experiment: Tumor oxygen by EPR oximetry at different irradiances; assay type: in vivo, mice; conditions: light 3 hours post-injection
# Experimental: Tumor oxygen changes were measured in mice treated either with aminolevulinic acid-induced protoporphyrin IX (ALA-PPIX) or verteporfin. Using electron paramagnetic resonance (EPR) oximetry described in Example 1, two irradiance levels were performed three hours post-injection of verteporfin or ALA-PPIX. Irradiance levels for ALA-PPIX were 30 mW/cm^2 and 150 mW/cm^2, whereas 50 mW/cm^2 and 200 mW/cm^2 were used for verteporfin.
# EPR oximetry measured tumor oxygenation in RIF-1 tumor cells and in tumorigenic mice treated with photodynamic therapy, using synthetic lithium phthalocyanine (LiPc) as the oxygen-sensitive EPR material. Small particles between 50 and 200 μm in size were implanted into the animal tumors by 23-gauge needle at a depth of 1-3 mm within the tumor. Injections of LiPc were performed at least 24 hours prior to photodynamic therapy. Mice were placed in an L-band (1.2 GHz) EPR spectrometer with a microwave bridge that was custom-built for small animal experiments involving measurement of tissue pO2. Each mouse was anesthetized and placed in the EPR resonator for continuous measurement of the tumor tissue pO2 in 15-minute intervals. The external loop resonator was positioned over the tumor to record the EPR signal of injected LiPc within the tissue. Line widths of the EPR signal were converted to pO2 using a calibration curve determined for LiPc. The data were fit with a software program to match the Voigt line shape after the line widths were graphed as a function of time before, during, and after treatment.
# [3] = Group 4, radiation (10 Gy) then PDT
# [4] = Group 5, PDT with simultaneous radiation (10 Gy)
substance,measurement,setting,value
benzoporphyrin derivative mono-acid ring ‘A’ (BPD-MA) [Verteporfin],Re-growth Delay in Doubling Time,"RIF-1 tumors [1]; Group 3, PDT only",3.2 ± 1.7
same,slope of the natural logarithm of tumor volume versus days,"RIF-1 tumors [1]; Group 3, PDT only",0.13
same,Time for Tumor to Double Initial Volume,"RIF-1 tumors [1]; Group 3, PDT only, injection 3 hours before 690 nm light, 100 J/cm^2",8.9 ± 1.7
same,Re-growth Delay in Doubling Time,RIF-1 tumors [1]; [3],5.4 ± 1.4
same,Time for Tumor to Double Initial Volume,RIF-1 tumors [1]; [3],11.0 ± 1.5
same,slope of the natural logarithm of tumor volume versus days,"RIF-1 tumors [1]; Group 4, radiation then PDT",0.13
same,slope of the natural logarithm of tumor volume versus days,"RIF-1 tumors [1]; Group 5, PDT with simultaneous radiation",0.11
same,Re-growth Delay in Doubling Time,RIF-1 tumors [1]; [4],8.1 ± 1.5
same,Time for Tumor to Double Initial Volume,RIF-1 tumors [1]; [4],13.7 ± 1.6
same,"tumor pO2 levels during treatment, low irradiance","RIF-1 tumors [2]; 50 mW/cm^2 verteporfin, 30 mW/cm^2 ALA-PPIX",remained the same
same,"tumor pO2 levels during treatment, high irradiance","RIF-1 tumors [2]; 200 mW/cm^2 verteporfin, 150 mW/cm^2 ALA-PPIX",remained the same
